In PubChem BioAssay AID2060348 (Molecular Pharmacology Branch, DTP, NCI, 2025) one finds IC50 and viability, T/C data, which are given here for three compounds.

Each structure is given as a SMILES string. Several values for one entry are separate records, joined by “and”; a condition that tells them apart may be missing. Identical values can stand only once. Some results are limits rather than exact numbers.

This test concerns 885724-159-R-J1-PDC spheroids viability. The test can be described thus: Anticancer human tumor 885724-159-R-J1-PDC patient-derived pancreatic adenocarcinoma cell line growth inhibition [TAK]. The settings on record: spheroids with HUVEC and MSC; for viability, T/C: stronger effect = lower value. The source says:
Combinatorial screen of targeted agents with TAK-243 and ipatasertib in multi-cell type tumor spheroids
A high-throughput screen of multi-cell type tumor spheroids was designed to identify active combinations of targeted small molecules and TAK-243 or ipatasertib. Complex spheroids include a stromal component modeled by human endothelial cells (HUVEC) and fibroblasts modeled by human mesenchymal stem cells (MSCs). The concentration ranges selected for each drug and investigational agent were based upon clinically achievable concentrations if the clinical Cmax of the agent was known.
Compounds. The drugs and investigational agents: TAK-243 (785004), ipatasertib (767898), everolimus (733504), selumetinib (741078), bortezomib (756655), trametinib (758246), ixazomib (758254), vemurafenib (761431), dabrafenib (764134), sapanisertib (764658), alpelisib (765974), and copanlisib (816437), were obtained from the National Cancer Institute (NCI) Developmental Therapeutics Program Chemical Repository. The FDA-approved anticancer drug set is available from the NCI Developmental Therapeutics Program. […] The stock solutions were prepared in dimethyl sulfoxide (DMSO, Sigma-Aldrich, St. Louis, MO, cat. D2650) at 800-fold the tested concentration and stored at -70 degrees C prior to their use. All drugs and investigational agents were tested over a range starting from a high concentration at or near the clinical Cmax and decreasing in half-log increments. If the clinical Cmax for an agent had not been determined, the highest concentration tested was 10 microM.
NCI60 Cell Culture. NCI60 cell lines were obtained from the NCI Developmental Therapeutics Program Tumor Repository. For each lot of cells, the Repository performed Applied Biosystems AmpFLSTR Identifiler testing with PCR amplification to confirm consistency with the published Identifier STR profile for each cell line. Cells were kept in continuous culture for no more than 20 passages. The optimal seeding densities for each of the cell lines at each time point assessed were determined prior to performing the concentration response studies. Briefly, the NCI60 human tumor lines were grown as monolayers in RPMI 1640 medium supplemented with 10% FBS and 2 mmol/L L-glutamine.
An additional 2 lines were from the NCI60 cell line panel including melanomas, MALME-3M and SK-MEL-2. Pooled donor human umbilical vein endothelial cells (HUVEC, Lonza, cat. CC-2519) and human mesenchymal stem cells (hMSC, Lonza, cat. PT-2501) were purchased from Lonza (Walkersville, MD).
PDMR cell lines were grown in complete medium (DC medium): Dulbecco's modified Eagle's medium (DMEM)/F12 supplemented with 5% fetal bovine serum (FBS), 2 mM L-glutamine, 100 U/mL penicillin and 100 µg/ml streptomycin, 0.4 µg/ml hydrocortisone, 10 ng/ml epidermal growth factor (EGF) recombinant human protein, 24 µg/mL adenine, and 0.1 mg/mL primocin. During culture from frozen stock vials, PDMR cells were cultured in the same medium containing 10 µM Y-27632 (see Table 3). The PDCs were cultured in complete DMEM/F12 media without 10 microM Y-27632 dihydrochloride for at least two passages prior to the screen. The pooled donor HUVEC and hMSC were cultured in endothelial cell growth medium 2 (PromoCell, Heidelberg, Germany, cat. C-22011) and mesenchymal stem cell growth medium 2 (PromoCell, cat. C-28009), respectively. For all experiments, HUVEC and hMSC were used at passages </=5.
For the pre-screen, cell seeding densities were determined from a titration spanning the range from 5,000 to 313 cells per well. The mct-spheroids including 60% malignant cells, 25% HUVEC and 15% MSC dispensed as a mixture into U-bottom Ultra-Low Attachment 384-well plates (Corning, NY)
High-throughput Drug Combination Screening.
Prior to their inoculation into 384-well plates, malignant cells, HUVEC, and hMSC were removed from T flasks using TrypLE express (Thermo Fisher Scientific, cat. 12605036) and harvested by centrifugation for 5 min at 233 x g. […]
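Further: spheroids exposed to drugs for seven days.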

In the case of `CC(=O)Nc1cccc(-n2c(=O)n(C3CC3)c(=O)c3c(Nc4ccc(I)cc4F)n(C)c(=O)c(C)c32)c1` + CC(C)NCC(C(=O)N1CCN(c2ncnc3c2C(C)CC3O)CC1)c1ccc(Cl)cc1, the concentration for half-maximal inhibition (IC50) is, setting by setting: (curve of first compound, second compound 0.3 µM) 0.357 nM; (curve of first compound, second compound 0.949 µM) 0.148 nM; (curve of first compound, second compound 3 µM) 0.118 nM; (curve of first compound, second compound 9.49 µM) less than 0.0949 nM; (curve of first compound, second compound 30 µM) less than 0.0949 nM. Also, the viability, T/C reads like this: (second compound 0.3 µM, first compound 94.9 pM) 62.1%; (second compound 0.3 µM, first compound 0.0003 µM) 52.4%; (second compound 0.3 µM, first compound 0.000949 µM) 39.4%; (second compound 0.3 µM, first compound 0.003 µM) 29.7%; (second compound 0.3 µM, first compound 0.00949 µM) 19.8%; (second compound 0.3 µM, first compound 0.03 µM) 12.7%. In addition, the viability, T/C runs as follows: (second compound 0.949 µM, first compound 94.9 pM) 51.8%; (second compound 0.949 µM, first compound 0.0003 µM) 46.9%; (second compound 0.949 µM, first compound 0.000949 µM) 39.5%; (second compound 0.949 µM, first compound 0.003 µM) 26.4%; (second compound 0.949 µM, first compound 0.00949 µM) 16.5%; (second compound 0.949 µM, first compound 0.03 µM) 9.03%. Besides, the viability, T/C runs as follows: (second compound 3 µM, first compound 94.9 pM) 50.9%; (second compound 3 µM, first compound 0.0003 µM) 47%; (second compound 3 µM, first compound 0.000949 µM) 37.3%; (second compound 3 µM, first compound 0.003 µM) 27.7%; (second compound 3 µM, first compound 0.00949 µM) 12.6%; (second compound 3 µM, first compound 0.03 µM) 7.15%. The viability, T/C is 42.9% (second compound 9.49 µM, first compound 94.9 pM); 39.1% (second compound 9.49 µM, first compound 0.0003 µM); 31.9% (second compound 9.49 µM, first compound 0.000949 µM); 20.5% (second compound 9.49 µM, first compound 0.003 µM); 9.73% (second compound 9.49 µM, first compound 0.00949 µM); 4.47% (second compound 9.49 µM, first compound 0.03 µM). The viability, T/C is, setting by setting: (second compound 30 µM, first compound 94.9 pM) 29.2%; (second compound 30 µM, first compound 0.0003 µM) 23.4%; (second compound 30 µM, first compound 0.000949 µM) 15.1%; (second compound 30 µM, first compound 0.003 µM) 6.5%; (second compound 30 µM, first compound 0.00949 µM) 4.94%; (second compound 30 µM, first compound 0.03 µM) 2.14%.

With `CC(=O)Nc1cccc(-n2c(=O)n(C3CC3)c(=O)c3c(Nc4ccc(I)cc4F)n(C)c(=O)c(C)c32)c1`, the viability, T/C (compound 94.9 pM) is 89.3% and 117%; the viability, T/C (compound 0.0003 µM) was 86.7% and 71.2%; the viability, T/C (compound 0.000949 µM) was 53.9% and 55.8%; the viability, T/C (compound 0.003 µM) was 37.1% and 40.6%; the viability, T/C (compound 0.00949 µM) was 26.4% and 30.2%; the viability, T/C (compound 0.03 µM) is 20.4%. For the same compound, the IC50 (curve of compound) was 1.38 nM and 1.18 nM.

For `CC(C)n1nc(-c2ccc3oc(N)nc3c2)c2c(N)ncnc21`, the viability, T/C runs as follows: (compound 0.000316 µM) 104% and 108%; (compound 0.001 µM) 103% and 95.1%; (compound 0.00316 µM) 93.3% and 83.8%; (compound 0.01 µM) 67.5% and 70.2%; (compound 0.0316 µM) 54.2% and 51.1%; (compound 0.1 µM) 46.1% and 46%. Further, for the setting “curve of compound”, the IC50 is 52.6 nM and 52.9 nM.

The IC50 is the midpoint of a concentration-inhibition curve. As a reminder, the viability, T/C is the ratio of treated to control.
